{"source": "patent US7183459B2", "about": "“Dwf7 mutants” (The Arizona Board of Regents on Behalf of the University of …, priority 2000, dated 2007)", "key": {"[1]": {"system": "Δ^7 sterol C-5 desaturase", "details": "enzyme prepared from maize microsomes; cited from earlier work"}, "dwf7-1 plants [2]": {"system": "dwf7-1 plants", "test": "Feeding of BR biosynthetic intermediates to shoot tips of 3-week-old dwf7-1 plants", "assay_type": "in vivo, Arabidopsis thaliana", "details": "for elongation of dwf7-1 pedicels in response to BRs: FIG. 4 legend, versus water, n>15", "experimental": "(§1) Feeding experiments using biosynthetic intermediates were performed with 3-week-old mutant plants. The intermediates tested were diluted to the desired concentration with water containing 0.01% Tween 20. Two microliters of each brassinosteroid (BR) solution was applied daily to the shoot tips of plants by using a micro pipettman. After 1 week of treatment, total growth of inflorescence and pedicels was measured to the nearest millimeter (n=15).\nTo pinpoint the defective step in the BR biosynthetic pathway, dwf7-1 mutants were treated with BR biosynthetic intermediates. Due to undetectable bioactivity of some early intermediates (CR to 6-oxocampestanol) in bioassays (Fujioka et al. 1995; Choe et al. (1998) Plant Cell 10:231–243), these were not used. Instead, three biologically active compounds were chosen, 22-OHCR, 6-deoxoCT, and BL, for these feeding tests (see FIG. 1). Because the 22α-hydroxylation reaction is reported to be mediated by DWF4 (Choe et al. (1998) Plant Cell 10:231–243), biochemical complementation of dwf mutants other than dwf4 by 22-OHCR places the defective step upstream of CR.\n(§2) Similarly, 3-week-old inflorescences of dwf7-2 were tested with 22-OHCR, 6-deoxoCT, teasterone, and BL."}, "dwf7-2": {"system": "dwf7-2", "test": "Feeding of BR biosynthetic intermediates to dwf7-2 inflorescences", "assay_type": "in vivo, Arabidopsis thaliana", "details": "for elongation of pedicels and internodes of dwf7-2: 3-week-old inflorescences of dwf7-2; for biochemical complementation of the dwf7-2 allele: in vivo", "experimental": "as §1\nA second allele of dwf7 was identified among 43 dwarf mutants isolated by screening >50,000 M2 seeds of an EMS mutant population.\nas §2"}, "[3]": {"system": "Wassilewskija-2 (Ws-2) wild type hypocotyls", "quoted_text": "Biochemical complementation of dwf7-1 plants with different concentrations of brassinolide (BL) was performed in liquid media. BL-supplemented (control, 10^−9, 10^−8, and 10^−7 M) sterile liquid media (1.5 mL) was dispensed into wells of a 24-well plate (Corning Co., Corning, N.Y.). Three seedlings, germinated on agar-solidified media, were transferred into each well. After a week of growth with continuous shaking (230 rpm), the seedlings were lightly stained with toluidine blue, and hypocotyls and roots were measured to the nearest millimeter."}, "[4]": {"system": "wild-type Arabidopsis seedlings", "test": "Effects of compactin and MVA on growth of seedlings in liquid media", "assay_type": "in vivo"}, "dwf7-1 plants [5]": {"system": "dwf7-1 plants", "test": "GA3 spray on 3-week-old dwf7-1 plants", "assay_type": "in vivo, Arabidopsis thaliana", "details": "0.1 mM GA3 sprayed"}, "wild-type plants": {"system": "wild-type plants", "test": "GA3 spray on wild-type plants", "assay_type": "in vivo, Arabidopsis thaliana", "details": "0.1 mM GA3 sprayed", "description": "The overall morphology of plants is dependent on three factors: cell size, shape, and number (Cosgrove (1997) Plant Cell 9:1031–1041). Various signals modulate these factors. Environmental signals, such as water, temperature, and light, are transduced to invoke internal hormone signals, including auxins, gibberellins, and BRs. These signals then trigger the cell elongation process, including but not limited to cell wall loosening by xyloglucan endotransglycosylases and expansins. Thus, a block in any of the signal transduction cascades from the environmental signals to the cell elongation process could result in dwarfism. Mutants resistant to or deficient in classic hormones, such as auxin (e.g., auxin resistant2 [axr2]; Timpte (1992) Genetics 138:1239–1249) and gibberellin ([ga1 to ga5 and gai]; Koornneef and van der Veen (1980) Theor. Appl. Genet. 58:257-263; Koornneef et al. (1985) Physiol. Plant. 65:33–39), often result in dwarfism. Thus, we first tested whether dwf7 is either rescued by or resistant to exogenous application of these hormones. […] The reduction of hypocotyl length in dwf7-1 was rescued by the application of BL (FIG. 3). Both wild-type and dwf7-1 plants responded to BL, but dwf7-1 plants were hypersensitive. The length of dwf7-1 hypocotyls was increased 160% in response to 1 nM BL as compared with the untreated control, whereas the wild-type responded marginally (5%)."}}, "note": "Where two headings read alike, the source gives them in different places.", "data": [{"smiles": "[C-]#[O+]", "note": "[carbon monoxide]", "values": [{"measurement": "effect on enzyme", "setting": "[1]", "value": "insensitive"}]}, {"smiles": "CC(C)[C@H](C)C[C@H](O)[C@@H](C)[C@H]1CC[C@H]2[C@@H]3CC[C@H]4C[C@@H](O)CC[C@]4(C)[C@H]3CC[C@]12C", "note": "[6-deoxoCT]", "values": [{"measurement": "elongation of dwf7-1 pedicels in response to BRs", "setting": "dwf7-1 plants [2]", "value": "greater than twofold"}, {"measurement": "elongation of pedicels and internodes of dwf7-2", "setting": "dwf7-2", "value": "significant elongation"}]}, {"smiles": "CC(C)[C@H](C)C[C@H](O)[C@@H](C)[C@H]1CC[C@H]2[C@@H]3CC(=O)[C@H]4C[C@@H](O)CC[C@]4(C)[C@H]3CC[C@]12C", "note": "[cathasterone]", "values": [{"measurement": "biochemical complementation of the dwf7-2 allele", "setting": "dwf7-2", "value": "biochemically complemented"}]}, {"smiles": "CC(C)[C@H](C)[C@@H](O)[C@H](O)[C@@H](C)[C@H]1CC[C@H]2[C@@H]3COC(=O)[C@H]4C[C@H](O)[C@H](O)C[C@]4(C)[C@H]3CC[C@]12C", "note": "[BL, brassinolide]", "values": [{"measurement": "elongation of dwf7-1 pedicels in response to BRs", "setting": "dwf7-1 plants [2]", "value": "greater than twofold"}, {"measurement": "length of cells in dwf7-1 stem after BL treatment", "setting": "dwf7-1 plants [2]; daily application of 10^-7 M BL for 1 week", "value": "converted to the length of the wild type"}, {"measurement": "growth of treated dwf7-1 pedicels relative to wild-type", "setting": "dwf7-1 plants [2]; in vivo", "value": "greater than or equal to that of the wild-type"}, {"measurement": "elongation of pedicels and internodes of dwf7-2", "setting": "dwf7-2", "value": "significant elongation"}, {"measurement": "elongation of dwf7-1 hypocotyls (increase)", "setting": "dwf7-1 hypocotyls; 1 nM BL, BL-supplemented liquid media, light-grown, compared with untreated control", "value": 160, "unit": "%"}, {"measurement": "rescue of dwf7-1 hypocotyls to wild-type length", "setting": "dwf7-1 hypocotyls; 10 nM (10^-8 M) BL", "value": "completely rescued"}, {"measurement": "rescue of dwf7-1 hypocotyls to wild-type length", "setting": "dwf7-1 hypocotyls; 100 nM BL", "value": "completely rescued"}, {"measurement": "response of dwf7-1 hypocotyls to BL", "setting": "dwf7-1 hypocotyls; 10^-9 M BL, light-grown (FIG. 3)", "value": "responds"}, {"measurement": "wild-type hypocotyl increase", "setting": "[3]; 1 nM BL, BL-supplemented liquid media, light-grown", "value": 5, "unit": "%"}, {"measurement": "BL concentration giving the strongest response of the wild type", "setting": "[3]; hypocotyl length, liquid media (FIG. 3)", "value": 100, "unit": "nM"}]}, {"smiles": "CC[C@H](C)C(=O)O[C@H]1CCC=C2C=C[C@H](C)[C@H](CC[C@@H]3C[C@@H](O)CC(=O)O3)[C@H]21", "note": "[compactin, mevastatin]", "values": [{"measurement": "growth of seedlings", "setting": "[4]; 10 μM compactin, liquid media", "value": "almost completely inhibited"}]}, {"smiles": "C[C@@](O)(CCO)CC(=O)O", "note": "[MVA, mevalonic acid]", "values": [{"measurement": "reversal of compactin growth inhibition", "setting": "[4]; 4.5 mM MVA applied simultaneously with 10 μM compactin", "value": "restored to the level of controls"}]}, {"smiles": "CC(C)[C@H](C)C[C@H](O)[C@@H](C)[C@H]1CC[C@H]2[C@@H]3CC=C4C[C@@H](O)CC[C@]4(C)[C@H]3CC[C@]12C", "note": "[22-OHCR, 22 α-hydroxycampesterol]", "values": [{"measurement": "elongation of dwf7-1 pedicels in response to BRs", "setting": "dwf7-1 plants [2]", "value": "greater than twofold"}, {"measurement": "growth of treated dwf7-1 pedicels relative to wild-type", "setting": "dwf7-1 plants [2]; in vivo", "value": "greater than or equal to that of the wild-type"}, {"measurement": "rescue of dwf7-1 by exogenous application", "setting": "dwf7-1 plants [2]; in vivo", "value": "Rescue"}, {"measurement": "elongation of pedicels and internodes of dwf7-2", "setting": "dwf7-2", "value": "significant elongation"}, {"measurement": "biochemical complementation of the dwf7-2 allele", "setting": "dwf7-2", "value": "biochemically complemented"}]}, {"smiles": "C=C1C[C@]23C[C@@]1(O)CC[C@H]2[C@@]12C=C[C@H](O)[C@@](C)(C(=O)O1)[C@H]2[C@@H]3C(=O)O", "note": "[GA3]", "values": [{"measurement": "rescue of the dwf7-1 phenotype", "setting": "dwf7-1 plants [5]", "value": "did not rescue"}, {"measurement": "increase of inflorescence height", "setting": "dwf7-1 plants [5]; 3-week-old dwf7-1 plants", "value": "< 10", "unit": "%"}, {"measurement": "increase of inflorescence height", "setting": "wild-type plants", "value": "< 10", "unit": "%"}]}, {"smiles": "CC(C)[C@H](C)[C@@H](O)[C@H](O)[C@@H](C)[C@H]1CC[C@H]2[C@@H]3CC(=O)[C@H]4C[C@@H](O)CC[C@]4(C)[C@H]3CC[C@]12C", "note": "[teasterone]", "values": [{"measurement": "elongation of pedicels and internodes of dwf7-2", "setting": "dwf7-2", "value": "significant elongation"}]}]}
